Reference: ChEMBL document CHEMBL5113519, “Discovery of Novel Imidazo[4,5-c]quinoline Derivatives to Treat Inflammatory Bowel Disease (IBD) by Inhibiting Multiple Proinflammatory Signaling Pathways and Restoring Intestinal Homeostasis” (J Med Chem, 2022)
Calls of active or inactive are those of the source. The rule behind the calls is not given here.

Assays:
[1] = molecular target: Tyrosine-protein kinase JAK1 (Homo sapiens, UniProt P23458); experiment: Inhibition of JAK1 (unknown origin) using Kinase/Tyr 6 peptide as substrate incubated for 1 hrs in presence of ATP by fluorescence microplate reader analysis
Chain of Tyrosine-protein kinase JAK1 (P23458 whole entry): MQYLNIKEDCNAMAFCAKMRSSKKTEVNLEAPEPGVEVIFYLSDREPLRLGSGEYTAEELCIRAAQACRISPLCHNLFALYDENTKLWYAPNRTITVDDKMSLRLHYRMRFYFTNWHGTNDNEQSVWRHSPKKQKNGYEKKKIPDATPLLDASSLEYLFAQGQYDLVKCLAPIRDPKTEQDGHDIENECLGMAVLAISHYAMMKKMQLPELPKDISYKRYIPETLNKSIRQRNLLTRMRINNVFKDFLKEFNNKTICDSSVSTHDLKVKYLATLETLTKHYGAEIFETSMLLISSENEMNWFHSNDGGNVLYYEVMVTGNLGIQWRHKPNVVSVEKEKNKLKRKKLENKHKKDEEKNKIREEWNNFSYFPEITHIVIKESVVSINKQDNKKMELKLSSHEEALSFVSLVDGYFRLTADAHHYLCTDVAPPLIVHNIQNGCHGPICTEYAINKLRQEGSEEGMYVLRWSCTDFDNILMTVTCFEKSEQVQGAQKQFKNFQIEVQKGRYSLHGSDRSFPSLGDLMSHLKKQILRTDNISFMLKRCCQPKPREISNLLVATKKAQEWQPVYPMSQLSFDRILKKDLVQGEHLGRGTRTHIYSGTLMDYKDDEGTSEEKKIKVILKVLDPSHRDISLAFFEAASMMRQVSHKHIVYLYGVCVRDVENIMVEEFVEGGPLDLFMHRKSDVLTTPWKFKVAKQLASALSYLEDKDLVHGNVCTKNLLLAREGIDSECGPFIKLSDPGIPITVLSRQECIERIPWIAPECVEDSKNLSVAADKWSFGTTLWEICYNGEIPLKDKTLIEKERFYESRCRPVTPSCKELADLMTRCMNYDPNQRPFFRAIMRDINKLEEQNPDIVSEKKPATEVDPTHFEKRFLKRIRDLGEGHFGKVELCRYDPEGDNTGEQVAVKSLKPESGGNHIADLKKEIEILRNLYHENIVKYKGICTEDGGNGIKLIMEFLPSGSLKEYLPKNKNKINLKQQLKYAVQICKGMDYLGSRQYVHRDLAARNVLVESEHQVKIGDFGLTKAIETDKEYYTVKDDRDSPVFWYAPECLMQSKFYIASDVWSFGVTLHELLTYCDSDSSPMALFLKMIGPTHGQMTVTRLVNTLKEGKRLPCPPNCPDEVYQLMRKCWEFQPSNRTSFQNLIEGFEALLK

[2] = Cytotoxicity against human GM00637 cells assessed as inhibition of cell growth measured after 24 hrs by CCK-8 method; type: toxicity, cell-based
[3] = Cytotoxicity against human HUVEC cells assessed as inhibition of cell growth measured after 24 hrs by CCK-8 method; type: toxicity, cell-based
THP1-Dual [4] = experiment: Anti-inflammatory activity against LPS-stimulated human THP1-Dual cells assessed as reduction in STAT1 phosphorylation level incubated for 6 hrs by Western blot analysis; type: functional, cell-based; conditions: dose 0.33-3 µM, DDE = dose-dependent effect
THP1-Dual [5] = experiment: Anti-inflammatory activity against LPS-stimulated human THP1-Dual cells assessed as reduction in phosphorylation of NF-kappa B level incubated for 6 hrs by Western blot analysis; type: functional, cell-based; conditions: dose 0.33-3 µM, DDE = dose-dependent effect
THP1-Dual [6] = experiment: Anti-inflammatory activity against LPS-stimulated human THP1-Dual cells assessed as inhibition of IL-8 secretion incubated for 6 hrs followed by LPS stimulation by Western blot analysis; type: functional, cell-based; conditions: dose 0.33-3 µM, DDE = dose-dependent effect
THP1-Dual [7] = experiment: Anti-inflammatory activity against LPS-stimulated human THP1-Dual cells assessed as inhibition of IL-1 beta secretion incubated for 6 hrs followed by LPS stimulation by Western blot analysis; type: functional, cell-based; conditions: dose 0.33-3 µM, DDE = dose-dependent effect
Mus musculus [8] = experiment: Antiinflammatory activity in DSS-induced acute enteritis C57BL mouse model assessed as suppression of DSS induced weight loss at 3 mg/kg, po administered daily and measured upto 11 days relative to control; type: functional; conditions: time <= 11 day
Mus musculus [9] = experiment: Antiinflammatory activity in DSS-induced acute colitis C57BL/6 mouse model assessed as reduction in bloody stool by measuring DAI score at 1 to 3 mg/kg, po administered daily and measured upto 11 days; type: functional, organism-based; conditions: dose 1-3 mg/kg, time <= 11.0 day
Mus musculus [10] = experiment: Antiinflammatory activity in DSS-induced acute colitis C57BL/6 mouse model assessed as reduction in weight loss by measuring DAI score at 1 to 3 mg/kg, po administered daily and measured upto 11 days; type: functional, organism-based; conditions: dose 1-3 mg/kg, time <= 11.0 day
Mus musculus [11] = experiment: Antiinflammatory activity in DSS-induced acute colitis C57BL/6 mouse model assessed as recovery of colon length at 1 to 3 mg/kg, po administered daily and measured upto 11 days; type: functional, organism-based; conditions: dose 1-3 mg/kg, time <= 11.0 day
Mus musculus [12] = experiment: Antiinflammatory activity in DSS-induced acute colitis C57BL/6 mouse model assessed as reduction in inflammatory cell infiltration in colon by measuring histopathological score at 1 to 3 mg/kg, po by H and E staining based analysis; type: functional, organism-based; conditions: dose 1-3 mg/kg
Mus musculus [13] = experiment: Antiinflammatory activity in DSS-induced acute colitis C57BL/6 mouse model assessed as reduction in colon villi integrity in colon by measuring histopathological score at 1 to 3 mg/kg, po by H and E staining based analysis; type: functional, organism-based; conditions: dose 1-3 mg/kg
Mus musculus [14] = experiment: Antiinflammatory activity in DSS-induced acute colitis C57BL/6 mouse model assessed as reduction in intestinal edema in colon by measuring histopathological score at 1 to 3 mg/kg, po by H and E staining based analysis; type: functional, organism-based; conditions: dose 1-3 mg/kg
Mus musculus [15] = experiment: Antiinflammatory activity in DSS-induced acute colitis C57BL/6 mouse model assessed as reduction in number of goblet cells in colon by measuring histopathological score at 1 to 3 mg/kg, po by H and E staining based analysis; type: functional, organism-based; conditions: dose 1-3 mg/kg
Mus musculus [16] = experiment: Antiinflammatory activity in DSS-induced acute colitis C57BL/6 mouse model assessed as reduction in lamina propria damage in colon by measuring histopathological score at 1 to 3 mg/kg, po by H and E staining based analysis; type: functional, organism-based; conditions: dose 1-3 mg/kg
Mus musculus [17] = experiment: Anti-inflammatory activity in TNBS induced IBD BALB/c mouse model assessed as reduction in weight by measuring disease activity index score at 1 to 5 mg/kg via oral gavage administered daily for 12 days measured daily; type: functional, organism-based; conditions: dose 1-5 mg/kg, time 12.0 day
Mus musculus [18] = experiment: Anti-inflammatory activity in TNBS induced IBD BALB/c mouse model assessed as reduction in stool softness by measuring disease activity index score at 1 to 5 mg/kg via oral gavage administered daily for 12 days; type: functional, organism-based; conditions: dose 1-5 mg/kg, time 12.0 day
Mus musculus [19] = experiment: Anti-inflammatory activity in TNBS induced IBD BALB/c mouse model assessed as reduction in bloody stool by measuring disease activity index score at 1 to 5 mg/kg via oral gavage administered daily for 12 days; type: functional, organism-based; conditions: dose 1-5 mg/kg, time 12.0 day
[20] = Toxicity in mouse assessed as abnormality in gastrointestinal tract at 20 to 50 mg/kg, IG measured upto 2 weeks; type: organism-based; conditions: in vivo, po, 336 h, dose 20-50 mg/kg
[21] = Toxicity in mouse assessed as abnormal change in heart at 20 to 50 mg/kg, IG measured upto 2 weeks; type: organism-based; conditions: in vivo, po, 336 h, dose 20-50 mg/kg
[22] = Toxicity in mouse assessed as abnormal change in liver at 20 to 50 mg/kg, IG measured upto 2 weeks; type: organism-based; conditions: in vivo, po, 336 h, dose 20-50 mg/kg
[23] = Toxicity in mouse assessed as abnormal change in lung at 20 to 50 mg/kg, IG measured upto 2 weeks; type: organism-based; conditions: in vivo, po, 336 h, dose 20-50 mg/kg
[24] = Toxicity in mouse assessed as abnormal change in kidney at 50 mg/kg, IG measured upto 2 weeks; type: organism-based; conditions: in vivo, po, 336 h
[25] = Toxicity in mouse assessed as effect on white blood cell number at 50 mg/kg, IG measured upto 2 weeks; type: organism-based; conditions: in vivo, po, 336 h
[26] = Toxicity in mouse assessed as effect on red blood cell number at 20 to 50 mg/kg, IG measured upto 2 weeks; type: organism-based; conditions: in vivo, po, 336 h, dose 20-50 mg/kg
[27] = Toxicity in mouse assessed as effect on neutrophils number at 20 to 50 mg/kg, IG measured upto 2 weeks; type: organism-based; conditions: in vivo, po, 336 h, dose 20-50 mg/kg
[28] = Toxicity in mouse assessed as drug tolerability at 20 to 50 mg/kg, IG measured upto 2 weeks; type: organism-based; conditions: in vivo, po, 336 h, dose 20-50 mg/kg
[29] = Toxicity in mouse assessed as behavioral changes at 20 to 50 mg/kg, IG measured upto 2 weeks; type: organism-based; conditions: in vivo, po, 336 h, dose 20-50 mg/kg
Mus musculus [30] = experiment: Anti-inflammatory bowel disease activity in DSS-induced acute enteritis mouse model assessed as reversal of intestinal microbiota at 3 mg/kg; type: functional, organism-based
Mus musculus [31] = experiment: Anti-inflammatory bowel disease activity in DSS-induced acute enteritis mouse model assessed as decrese in bacteroides abundance at 3 mg/kg; type: functional, organism-based
Mus musculus [32] = experiment: Anti-inflammatory bowl disease activity in DSS-induced acute enteritis mouse model assessed as increase in norank_f_Muribaculaceae abundance at 3 mg/kg; type: functional, organism-based
THP1-Dual [33] = experiment: Inhibition of LPS induced IL-1 beta expression in human THP1-Dual cells at 1 uM incubated for 6 hrs; type: functional, cell-based
THP1-Dual [34] = experiment: Inhibition of LPS induced TNF alpha expression in human THP1-Dual cells at 1 uM incubated for 6 hrs; type: functional, cell-based
THP1-Dual [35] = experiment: Inhibition of LPS induced IL12b expression in human THP1-Dual cells at 1 uM incubated for 6 hrs; type: functional, cell-based
THP1-Dual [36] = experiment: Downregulation of IFN-gamma in human THP1-Dual cells at 1 uM incubated for 6 hrs; type: functional, cell-based
THP1-Dual [37] = experiment: Downregulation of IFN-alpha in human THP1-Dual cells at 1 uM incubated for 6 hrs; type: functional, cell-based
THP1-Dual [38] = experiment: Downregulation of complement system in human THP1-Dual cells at 1 uM incubated for 6 hrs; type: functional, cell-based
[39] = molecular target: Tyrosine-protein kinase JAK2 (Homo sapiens, UniProt O60674)
Chain of Tyrosine-protein kinase JAK2 (O60674 whole entry): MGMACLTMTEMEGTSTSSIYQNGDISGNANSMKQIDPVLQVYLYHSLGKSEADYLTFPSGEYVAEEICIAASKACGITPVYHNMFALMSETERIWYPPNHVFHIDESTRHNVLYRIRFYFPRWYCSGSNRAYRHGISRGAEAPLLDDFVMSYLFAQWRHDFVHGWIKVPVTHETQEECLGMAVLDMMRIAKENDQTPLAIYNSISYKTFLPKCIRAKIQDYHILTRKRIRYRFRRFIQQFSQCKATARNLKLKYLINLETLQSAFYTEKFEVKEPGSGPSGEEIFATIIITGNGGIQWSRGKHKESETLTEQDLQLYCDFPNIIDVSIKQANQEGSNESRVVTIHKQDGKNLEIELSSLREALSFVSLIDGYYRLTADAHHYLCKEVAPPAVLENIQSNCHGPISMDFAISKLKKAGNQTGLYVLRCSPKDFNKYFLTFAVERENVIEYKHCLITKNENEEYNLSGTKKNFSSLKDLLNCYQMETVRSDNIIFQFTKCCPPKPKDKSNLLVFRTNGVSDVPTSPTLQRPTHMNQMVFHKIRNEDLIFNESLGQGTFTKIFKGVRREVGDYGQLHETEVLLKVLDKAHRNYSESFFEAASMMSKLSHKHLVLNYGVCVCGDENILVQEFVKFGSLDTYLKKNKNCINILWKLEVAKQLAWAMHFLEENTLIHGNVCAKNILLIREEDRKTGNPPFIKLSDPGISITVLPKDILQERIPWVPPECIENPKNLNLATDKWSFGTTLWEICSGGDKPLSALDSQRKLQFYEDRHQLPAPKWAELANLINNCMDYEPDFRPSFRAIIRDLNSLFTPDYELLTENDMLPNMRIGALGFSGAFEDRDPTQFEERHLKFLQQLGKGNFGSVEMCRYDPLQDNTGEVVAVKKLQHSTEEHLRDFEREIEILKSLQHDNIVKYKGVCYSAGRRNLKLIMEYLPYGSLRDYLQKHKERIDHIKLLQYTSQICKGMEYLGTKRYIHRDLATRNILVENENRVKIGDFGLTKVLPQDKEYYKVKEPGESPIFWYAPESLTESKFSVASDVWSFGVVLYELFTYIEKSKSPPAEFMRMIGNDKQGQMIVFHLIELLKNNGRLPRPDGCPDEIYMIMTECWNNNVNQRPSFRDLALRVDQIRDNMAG
Description: Inhibition of JAK2 (unknown origin) using Kinase/Tyr 6 peptide as substrate incubated for 1 hrs in presence of ATP by fluorescence microplate reader analysis

For Cc1nc2cnc3ccc(-c4cc(Cl)c(O)c(Cl)c4)cc3c2n1C1CCN(C)CC1, the IC50 [1] was 8.9 nM, the IC50 at 24 h [2] was greater than 10000 nM and the IC50 at 24 h [3] was greater than 10000 nM. For the same compound, the Activity (THP1-Dual [4]) was “Dde”, the Activity (THP1-Dual [5]) was “Dde” and the Activity (THP1-Dual [6]) was “Dde”. The Activity (THP1-Dual [7]) was “Dde”, the Activity (Mus musculus [8]) was 10.81% and the Activity (Mus musculus [9]) was “Active”. The Activity (Mus musculus [10]) was “Active”, the Activity (Mus musculus [11]) was “Active” and the Activity (Mus musculus [12]) was “Active”. The Activity (Mus musculus [13]) was “Active”, the Activity (Mus musculus [14]) was “Active” and the Activity (Mus musculus [15]) was “Active”. The Activity (Mus musculus [16]) was “Active”, the Activity (Mus musculus [17]) was “Active” and the Activity (Mus musculus [18]) was “Active”. The Activity (Mus musculus [19]) was “Active”, the Activity [20] was “Non-Toxic” and the Activity [21] was “Non-Toxic”. For the same compound, the Activity [22] was “Non-Toxic”, the Activity [23] was “Non-Toxic” and the Activity [24] was “Non-Toxic”. The Activity [25] was “Non-Toxic”, the Activity [26] was “Non-Toxic” and the Activity [27] was “Non-Toxic”. For the same compound, the Activity [28] was “Non-Toxic”, the Activity [29] was “Non-Toxic” and the Activity (Mus musculus [30]) was “Active”. The Activity (Mus musculus [31]) was “Active”, the Activity (Mus musculus [32]) was “Active” and the inhibition (THP1-Dual [33]) was “Active”. For the same compound, the inhibition (THP1-Dual [34]) was “Active”, the inhibition (THP1-Dual [35]) was “Active” and the Activity (THP1-Dual [36]) was “Active”. For the same compound, the Activity (THP1-Dual [37]) was “Active”, the Activity (THP1-Dual [38]) was “Active” and the IC50 [39] was 15 nM.
